Kd data for two compounds are collected here from PMC7961048, “Hierarchized phosphotarget binding by the seven human 14-3-3 isoforms” (Nature Communications, 2021).

One experiment concerns the target T1, 14-3-3γ (Homo sapiens, UniProt P61981).
T1 construct: full-length human 14-3-3 constructs with an N-terminal MBP fusion were used; made in house; host or cells: E. coli BL21(DE3)
T1 sequence (P61981 1-247): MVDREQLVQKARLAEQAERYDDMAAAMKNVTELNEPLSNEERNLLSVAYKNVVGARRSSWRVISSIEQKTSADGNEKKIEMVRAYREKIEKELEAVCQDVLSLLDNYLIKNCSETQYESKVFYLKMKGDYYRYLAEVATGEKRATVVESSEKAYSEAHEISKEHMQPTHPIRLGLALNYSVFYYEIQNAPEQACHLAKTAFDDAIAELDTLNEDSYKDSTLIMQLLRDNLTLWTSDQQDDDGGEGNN
In words: biochemical. The class given is binding. The method, then: (§1) The seven full-length human 14-3-3 isoforms, produced as fusions to a maltose-binding protein (MBP), were analyzed for their interaction with four phospho-PBMs from E6 proteins of HPV types 16, 18, 33, and 35 belonging to subgroups 1 and 2 (as defined in Supplementary Fig. 1). For comparison, we also measured two non-viral phospho-PBMs originating from protein kinase RSK1[28]. We used a competitive fluorescence polarization (FP) assay that measures the displacement of a fluorescent tracer phosphopeptide (here, derived from the HSPB6 protein) bound beforehand to 14-3-3, by an increasing amount of the peptide of interest.
(§2) For affinity measurements, full-length human 14-3-3 constructs with an N-terminal MBP fusion were used. Plasmids containing the cDNAs of the full-length 14-3-3 isoforms ε, γ, and ζ were received from Prof. Lawrence Banks. cDNAs encoding other full-length 14-3-3 isoforms β, τ, η, and σ were obtained as codon-optimized for E. coli expression synthetic genes from IDT Technologies (Coralville, Iowa, USA). All 14-3-3 isoforms were fused via a three-alanine linker to the C terminus of a mutant MBP carrying the following amino acid substitutions facilitating crystallization: D83A, K84A, K240A, E360A, K363A, and D364A[62]. All resulting clones were verified by sequencing. The MBP-fused proteins were expressed in E. coli BL21(DE3) with IPTG induction. Proteins were affinity purified on an amylose column and were further purified by ion-exchange chromatography (HiTrap Q HP, GE Healthcare). Unfused 14-3-3 isoforms devoid of the flexible C-terminal tails (14-3-3βΔC, 14-3-3τΔC 14-3-3εΔC) were expressed using IPTG induction and purified by subtractive IMAC and SEC[40]. Protein concentrations were determined by UV spectroscopy. The samples were supplemented with glycerol and TCEP before aliquoting and freezing in liquid nitrogen.
(§3) Unless otherwise stated, all phosphopeptide-binding measurements were performed using full-length 14-3-3 proteins fused to the C terminus of MBP, favoring optimal solubility and a standardized parallel purification scheme.
(§4) FP was measured with a PHERAstar (BMG Labtech, Offenburg, Germany) microplate reader by using 485 ± 20 and 528 ± 20 nm band-pass filters (for excitation and emission, respectively). In direct FP measurements, a dilution series of the 14-3-3 protein was prepared in 96-well plates (96-well skirted PCR plate, 4ti-0740, 4titude, Wotton, UK) in a 20 mM HEPES pH 7.5 buffer containing 150 mM NaCl, 0.5 mM TCEP, 0.01% Tween 20, 50 nM fluorescently labeled fpB6 peptide, and 100 μM FSC, if indicated. The volume of the dilution series was 40 μl, which was later divided into three technical replicates of 10 μl upon transferring to 384-well micro-plates (low binding microplate, 384 well, E18063G5, Greiner Bio-One, Kremsmünster, Austria). In total, polarization of the probe was measured at eight different protein concentrations (whereas one contained no protein and corresponded to the free peptide). In competitive FP measurements, the same buffer was supplemented with the protein to achieve a complex formation of 60–80%, based on the direct titration. Then, this mixture was used for creating a dilution series of the unlabeled competitor (i.e., the studied peptides) and the measurement was carried out identically as in the direct experiment.
(§5) All FP experiments were done in triplicates. Analysis of FP experiments were carried out using ProFit, an in-house developed, Python-based fitting program. ProFit utilizes a Monte Carlo approach to take into account experimental variability. It generates hundreds of simulated datasets, based on the experimental data variance and fits direct and competitive measurements in pairs.

The next experiment deals with T2, 14-3-3σ (Homo sapiens, UniProt P31947).
T2 construct: cDNAs encoding other full-length 14-3-3 isoforms β, τ, η, and σ were obtained as codon-optimized; made in house; host or cells: E. coli BL21(DE3)
T2 sequence (P31947 1-248): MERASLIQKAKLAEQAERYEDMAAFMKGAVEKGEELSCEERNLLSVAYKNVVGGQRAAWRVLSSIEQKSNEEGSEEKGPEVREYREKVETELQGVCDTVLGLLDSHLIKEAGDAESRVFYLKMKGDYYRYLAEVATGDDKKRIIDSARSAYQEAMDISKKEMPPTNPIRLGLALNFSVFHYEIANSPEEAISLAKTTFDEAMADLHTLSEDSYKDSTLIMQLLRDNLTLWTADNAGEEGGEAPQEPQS
As to the kind of experiment: biochemical. Format: binding. On the procedure:
as §1, §2, §3, §4, §5

The next experiment deals with T3, 14-3-3β (Homo sapiens, UniProt P31946).
T3 construct: cDNAs encoding other full-length 14-3-3 isoforms β, τ, η, and σ were obtained as codon-optimized; made in house; host or cells: E. coli BL21(DE3)
T3 sequence (P31946 1-246): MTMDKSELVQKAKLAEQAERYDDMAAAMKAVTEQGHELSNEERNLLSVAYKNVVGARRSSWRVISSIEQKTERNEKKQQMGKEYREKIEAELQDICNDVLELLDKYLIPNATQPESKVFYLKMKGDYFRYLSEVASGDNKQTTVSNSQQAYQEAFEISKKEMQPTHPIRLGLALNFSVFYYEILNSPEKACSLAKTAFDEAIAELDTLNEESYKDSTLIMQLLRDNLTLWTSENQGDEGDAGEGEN
In words: biochemical. Format: binding. The method, then:
as §1, §2, §3, §4, §5

Another experiment concerns the target T4, 14-3-3η (Homo sapiens, UniProt Q04917).
T4 construct: cDNAs encoding other full-length 14-3-3 isoforms β, τ, η, and σ were obtained as codon-optimized; made in house; host or cells: E. coli BL21(DE3)
T4 sequence (Q04917 1-246): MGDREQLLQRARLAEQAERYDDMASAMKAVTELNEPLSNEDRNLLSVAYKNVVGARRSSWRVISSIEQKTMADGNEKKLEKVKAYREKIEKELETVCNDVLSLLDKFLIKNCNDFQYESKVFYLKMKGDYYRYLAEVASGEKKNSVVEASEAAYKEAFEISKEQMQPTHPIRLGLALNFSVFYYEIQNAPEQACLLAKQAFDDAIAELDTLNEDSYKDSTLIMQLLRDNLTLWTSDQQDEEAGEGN
As to the kind of experiment: biochemical. The class given is binding. On the procedure: as §1, §2, §3, §4, §5

Another experiment has as its target T5, 14-3-3τ (Homo sapiens, UniProt P27348).
T5 construct: cDNAs encoding other full-length 14-3-3 isoforms β, τ, η, and σ were obtained as codon-optimized; made in house; host or cells: E. coli BL21(DE3)
T5 sequence (P27348 1-245): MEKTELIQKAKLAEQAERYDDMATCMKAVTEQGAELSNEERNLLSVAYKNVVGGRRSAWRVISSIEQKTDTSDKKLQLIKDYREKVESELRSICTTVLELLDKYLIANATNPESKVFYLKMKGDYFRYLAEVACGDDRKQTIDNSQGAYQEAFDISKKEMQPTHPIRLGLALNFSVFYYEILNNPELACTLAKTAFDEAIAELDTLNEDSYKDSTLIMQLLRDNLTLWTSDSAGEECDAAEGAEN
As to the kind of experiment: biochemical. Format: binding. The method, then:
as §1, §2, §3, §4, §5

The next experiment addresses T6, 14-3-3ζ (Homo sapiens, UniProt P63104).
T6 construct: Plasmids containing the cDNAs of the full-length 14-3-3 isoforms ε, γ, and ζ were received; made in house; host or cells: E. coli BL21(DE3)
T6 sequence (P63104 1-245): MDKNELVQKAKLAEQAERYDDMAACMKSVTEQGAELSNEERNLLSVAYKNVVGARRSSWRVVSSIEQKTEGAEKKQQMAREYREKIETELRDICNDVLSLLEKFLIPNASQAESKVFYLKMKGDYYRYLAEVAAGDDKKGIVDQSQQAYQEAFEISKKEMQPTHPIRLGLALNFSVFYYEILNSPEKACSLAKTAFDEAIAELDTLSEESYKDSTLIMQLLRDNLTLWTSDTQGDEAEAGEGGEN
In words: biochemical. The class given is binding. On the procedure: as §1, §2, §3, §4, §5

A further experiment addresses T7, 14-3-3ε (Homo sapiens, UniProt P62258).
T7 construct: Plasmids containing the cDNAs of the full-length 14-3-3 isoforms ε, γ, and ζ were received; made in house; host or cells: E. coli BL21(DE3)
T7 sequence (P62258 1-255): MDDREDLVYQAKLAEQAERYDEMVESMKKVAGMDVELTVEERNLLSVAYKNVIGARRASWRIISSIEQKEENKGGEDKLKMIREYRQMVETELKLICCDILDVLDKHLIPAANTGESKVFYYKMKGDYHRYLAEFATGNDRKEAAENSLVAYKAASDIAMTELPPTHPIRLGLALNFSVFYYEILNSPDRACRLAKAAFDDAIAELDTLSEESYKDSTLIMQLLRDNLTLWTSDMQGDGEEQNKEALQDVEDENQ
As to the kind of experiment: biochemical. Format: binding. On the procedure: as §1, §2, §3, §4, §5

Another experiment deals with 14-3-3 isoforms. The following applies: Figure 4 panel a, literature-curated motifs, unit from the colour scale line, cited from earlier work.

A word on the Kd: it is the concentration at which binding is half-saturated.

Like-named read-outs stand apart in the source and are kept apart here. Starred links: 1 amine or outer side, 2 acyl side, 3 side chain; linkers in the order of their positions; H or OH if unused. Non-standard residues stand in square brackets, D forms with d. Residues, ends and D or L forms follow the SMILES beside them. *: point of attachment. X1 = O=C(CCCC[C@@H]1SC[C@@H]2NC(=O)N[C@@H]21)NCCCOCCOCCOCCCN*; pT = C[C@@H](OP(=O)(O)O)[C@H](N)C(=O)O; Suc = O=C(CCC(=O)[*:2])[*:1]

In the case of `CC(C)[C@H](NC(=O)[C@H](C)NC(=O)[C@@H](NC(=O)[C@H](CCC(=O)O)NC(=O)[C@H](CCCNC(=N)N)NC(=O)[C@H](CCCNC(=N)N)NC(=O)[C@H](CCCNC(=N)N)NC(=O)[C@@H]1CCCN1C(=O)[C@H](CCCCN)NC(=O)[C@H](CO)NC(=O)CCC(=O)NCCCOCCOCCOCCCNC(=O)CCCC[C@@H]1SC[C@@H]2NC(=O)N[C@@H]21)[C@@H](C)OP(=O)(O)O)C(=O)O` [pHPV35E6T-6R, E-1A] ({X1-Suc}-SKPRRRE[pT]AV-OH), the Kd is 3.3 ± 0.2 µM on 14-3-3γ; 18.9 ± 1.9 µM on 14-3-3σ; 7.1 ± 0.5 µM at 14-3-3β; 4.8 ± 0.5 µM on 14-3-3η; 5.8 ± 0.4 µM on 14-3-3τ; 7.3 ± 0.4 µM on 14-3-3ζ. On 14-3-3ε, this compound registered a Kd of 13 ± 2 µM.
Consider “C-Raf254-264 (RQRSTSTPNVH; UniProt P04049 254-264, looked up, fragment)”, for which the Kd is 9.5 µM at 14-3-3 isoforms (14-3-3β, read-out: Binding affinities (KD) of various 14-3-3-binding motifs, 14-3-3β); 3.7 µM at 14-3-3 isoforms (14-3-3γ, read-out: Binding affinities (KD) of various 14-3-3-binding motifs, 14-3-3γ); 15.1 µM on 14-3-3 isoforms (14-3-3ε, read-out: Binding affinities (KD) of various 14-3-3-binding motifs, 14-3-3ε); 16.6 µM at 14-3-3 isoforms (14-3-3ζ, read-out: Binding affinities (KD) of various 14-3-3-binding motifs, 14-3-3ζ); 6.3 µM at 14-3-3 isoforms (14-3-3η, read-out: Binding affinities (KD) of various 14-3-3-binding motifs, 14-3-3η); 67.1 µM at 14-3-3 isoforms (14-3-3σ, read-out: Binding affinities (KD) of various 14-3-3-binding motifs, 14-3-3σ). Further, on 14-3-3 isoforms (14-3-3τ, read-out: Binding affinities (KD) of various 14-3-3-binding motifs, 14-3-3τ), the Kd is 26.6 µM.
